These results are taken from ChEMBL document CHEMBL3351479, “Novel acylureidoindolin-2-one derivatives as dual Aurora B/FLT3 inhibitors for the treatment of acute myeloid leukemia” (Eur J Med Chem, 2014).

Data set [1] is described as follows: Cytotoxicity against human HL60 cells assessed as cell viability after 48 hrs by MTT assay. Type of data set: functional, cell-based. Conditions: HL-60, 48 h. Background: Tetrazolium dyes change colour on reduction, which living cells bring about.
Data set [2] concerns THP-1. As to the kind of experiment: Cytotoxicity against human THP1 cells assessed as cell viability after 48 hrs by MTT assay. As to conditions: Homo sapiens, THP-1, 48 h. In kind it is functional, cell-based.
For data set [3], the target named is Platelet-derived growth factor receptor beta (Homo sapiens) (UniProt P09619). As to the kind of experiment: Inhibition of PDGFRbeta (unknown origin) at 1 uM.
Data set [4] has as its target Aurora kinase A (Homo sapiens) (UniProt O14965). Nature of the data set: Inhibition of Aurora A (unknown origin) at 1 uM.
Data set [5] concerns the target Platelet-derived growth factor receptor alpha (Homo sapiens) (UniProt P16234). Nature of the data set: Inhibition of PDGFRalpha (unknown origin) at 1 uM.
Data set [6] is described as follows: Permeability coefficient of the compound at pH 7.4 by PAMPA-GIT assay. Type of data set: ADME. Conditions: read-out: Peff. A general note: In PAMPA a lipid-coated filter parts donor from acceptor wells.
Data set [7] can be described thus: Ratio of solubility in PBS to solubility in DMSO. Type of data set: physicochemical.
Data set [8] has as its target Aurora kinase C (Homo sapiens) (UniProt Q9UQB9). Nature of the data set: Inhibition of Aurora C (unknown origin) at 1 uM.
For data set [9], the system named is MOLM-13. Nature of the data set: Cytotoxicity against human MOLM13 cells assessed as cell viability after 48 hrs by MTT assay. Type of data set: functional, cell-based. Conditions: MOLM-13, 48 h.
The target in data set [10] is Aurora kinase B (Homo sapiens, UniProt Q96GD4). As to the kind of experiment: Inhibition of Aurora B (unknown origin) using HLRRASLG substrate at 1 uM.
Data set [11] deals with MV4-11. Nature of the data set: Cytotoxicity against human MV4-11 cells assessed as cell viability after 48 hrs by MTT assay. Type of data set: functional, cell-based. As to conditions: Homo sapiens, MV4-11, 48 h.

Chain of Platelet-derived growth factor receptor alpha (Homo sapiens) (P16234 whole entry): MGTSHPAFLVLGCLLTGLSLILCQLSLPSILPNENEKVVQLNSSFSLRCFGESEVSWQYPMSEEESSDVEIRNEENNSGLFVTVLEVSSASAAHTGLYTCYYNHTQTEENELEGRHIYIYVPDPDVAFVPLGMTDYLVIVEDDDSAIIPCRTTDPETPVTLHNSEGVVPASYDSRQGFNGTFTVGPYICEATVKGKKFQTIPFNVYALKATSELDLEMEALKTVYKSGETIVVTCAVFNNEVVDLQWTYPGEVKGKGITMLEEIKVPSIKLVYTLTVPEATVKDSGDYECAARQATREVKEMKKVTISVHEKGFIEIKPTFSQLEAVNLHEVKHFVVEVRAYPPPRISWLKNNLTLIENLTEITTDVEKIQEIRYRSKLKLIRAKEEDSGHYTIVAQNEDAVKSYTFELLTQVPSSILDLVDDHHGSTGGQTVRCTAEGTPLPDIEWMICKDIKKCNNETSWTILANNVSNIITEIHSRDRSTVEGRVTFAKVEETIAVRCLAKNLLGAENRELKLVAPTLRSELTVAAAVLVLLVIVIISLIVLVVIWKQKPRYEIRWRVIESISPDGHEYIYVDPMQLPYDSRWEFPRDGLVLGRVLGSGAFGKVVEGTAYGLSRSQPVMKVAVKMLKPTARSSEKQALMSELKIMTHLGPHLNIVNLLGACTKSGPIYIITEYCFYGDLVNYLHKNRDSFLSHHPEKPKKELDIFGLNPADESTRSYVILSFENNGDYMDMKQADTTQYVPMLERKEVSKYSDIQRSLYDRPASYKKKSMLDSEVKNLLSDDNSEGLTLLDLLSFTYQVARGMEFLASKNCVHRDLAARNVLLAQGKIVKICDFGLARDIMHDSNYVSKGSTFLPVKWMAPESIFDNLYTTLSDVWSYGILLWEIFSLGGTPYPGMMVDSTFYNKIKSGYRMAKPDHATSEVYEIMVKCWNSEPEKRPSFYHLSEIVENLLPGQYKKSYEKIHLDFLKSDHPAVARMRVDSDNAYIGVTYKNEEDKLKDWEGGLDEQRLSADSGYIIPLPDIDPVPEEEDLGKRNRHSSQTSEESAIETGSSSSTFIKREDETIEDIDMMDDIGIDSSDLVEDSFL
Chain of Aurora kinase A (Homo sapiens) (O14965 whole entry): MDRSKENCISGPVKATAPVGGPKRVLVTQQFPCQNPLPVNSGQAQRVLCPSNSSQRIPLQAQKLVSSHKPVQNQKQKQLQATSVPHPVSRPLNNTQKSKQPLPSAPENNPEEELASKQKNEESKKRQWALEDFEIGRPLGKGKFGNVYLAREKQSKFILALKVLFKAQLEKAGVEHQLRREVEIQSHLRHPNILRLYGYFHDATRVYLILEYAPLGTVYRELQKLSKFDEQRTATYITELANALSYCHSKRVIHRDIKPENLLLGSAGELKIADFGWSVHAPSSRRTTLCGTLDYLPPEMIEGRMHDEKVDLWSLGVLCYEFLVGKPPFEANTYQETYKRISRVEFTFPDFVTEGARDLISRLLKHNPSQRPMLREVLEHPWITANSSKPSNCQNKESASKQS
Chain of Aurora kinase C (Homo sapiens) (Q9UQB9 whole entry): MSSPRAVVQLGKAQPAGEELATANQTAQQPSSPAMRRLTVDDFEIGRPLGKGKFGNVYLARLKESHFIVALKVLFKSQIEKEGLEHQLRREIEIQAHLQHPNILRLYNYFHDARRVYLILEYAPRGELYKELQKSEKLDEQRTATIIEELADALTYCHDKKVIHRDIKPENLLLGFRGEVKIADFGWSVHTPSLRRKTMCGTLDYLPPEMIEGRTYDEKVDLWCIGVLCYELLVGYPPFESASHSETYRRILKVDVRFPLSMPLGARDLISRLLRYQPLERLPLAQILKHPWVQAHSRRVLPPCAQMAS
Chain of Platelet-derived growth factor receptor beta (Homo sapiens) (P09619 whole entry): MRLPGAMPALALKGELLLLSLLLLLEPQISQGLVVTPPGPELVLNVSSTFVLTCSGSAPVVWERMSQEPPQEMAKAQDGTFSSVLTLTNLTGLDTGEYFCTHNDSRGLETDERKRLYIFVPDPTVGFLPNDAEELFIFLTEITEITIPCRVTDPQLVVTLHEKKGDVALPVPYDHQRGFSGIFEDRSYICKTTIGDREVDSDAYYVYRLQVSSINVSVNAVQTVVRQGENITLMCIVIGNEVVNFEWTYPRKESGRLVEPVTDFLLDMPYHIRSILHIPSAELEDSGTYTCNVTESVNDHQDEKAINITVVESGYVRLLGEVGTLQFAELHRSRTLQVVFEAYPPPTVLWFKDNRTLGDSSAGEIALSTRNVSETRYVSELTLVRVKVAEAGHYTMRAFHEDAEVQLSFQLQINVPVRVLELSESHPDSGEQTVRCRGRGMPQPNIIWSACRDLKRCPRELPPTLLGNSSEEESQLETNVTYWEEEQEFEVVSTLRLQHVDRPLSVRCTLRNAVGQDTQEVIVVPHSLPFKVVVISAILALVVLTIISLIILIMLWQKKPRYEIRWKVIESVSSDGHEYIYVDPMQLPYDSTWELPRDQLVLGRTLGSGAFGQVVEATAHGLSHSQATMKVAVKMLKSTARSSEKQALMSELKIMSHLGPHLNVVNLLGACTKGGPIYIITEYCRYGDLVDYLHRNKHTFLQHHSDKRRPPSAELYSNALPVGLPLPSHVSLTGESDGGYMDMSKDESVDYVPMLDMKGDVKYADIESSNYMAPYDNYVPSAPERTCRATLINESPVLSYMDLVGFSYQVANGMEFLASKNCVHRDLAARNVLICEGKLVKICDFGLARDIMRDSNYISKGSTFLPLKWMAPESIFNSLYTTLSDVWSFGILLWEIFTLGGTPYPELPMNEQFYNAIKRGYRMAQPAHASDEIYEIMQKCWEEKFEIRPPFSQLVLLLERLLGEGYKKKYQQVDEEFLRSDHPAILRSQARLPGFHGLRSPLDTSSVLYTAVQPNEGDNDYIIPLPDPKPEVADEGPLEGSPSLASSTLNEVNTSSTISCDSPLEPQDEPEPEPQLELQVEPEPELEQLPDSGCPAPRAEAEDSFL
Chain of Aurora kinase B (Q96GD4 whole entry): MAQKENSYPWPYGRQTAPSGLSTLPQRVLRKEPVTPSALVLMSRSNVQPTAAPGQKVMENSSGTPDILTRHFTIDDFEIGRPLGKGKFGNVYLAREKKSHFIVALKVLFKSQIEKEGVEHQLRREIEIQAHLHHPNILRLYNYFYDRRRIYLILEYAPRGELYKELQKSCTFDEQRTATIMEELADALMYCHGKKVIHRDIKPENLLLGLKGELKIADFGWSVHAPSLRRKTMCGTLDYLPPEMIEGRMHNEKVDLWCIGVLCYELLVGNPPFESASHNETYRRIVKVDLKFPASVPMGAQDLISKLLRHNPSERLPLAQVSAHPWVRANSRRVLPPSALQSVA

One may read the IC50 as the point on the concentration scale where inhibition reaches its midpoint. What is called inhibition is the change of the read-out against control, counted positive when it falls. Regarding `COc1ccc(C(=O)NC(=O)Nc2ccc3c(c2)NC(=O)/C3=C\c2ccc[nH]2)cc1`, the IC50 in data set [1] came to 0.0295 µM; in data set [2], 0.0684 µM; in [9] it was 0.0181 µM; in [11], 0.0293 µM. In addition, the inhibition was found to be 35% in data set [3]; 11% in [4]; 30% in [5]; 17% in [8]; 94% in data set [10]. For the same compound, the Papp in data set [6] stood at 6.7 nm/s. In data set [7], the Ratio amounted to 0.37.
